Assay results as given in patent publication US11786597B2, “Ionic liquids for transdermal drug delivery” (priority 2013, dated 2023).
Several values for one entry are separate records, joined by “and”; a condition that tells them apart may be missing. Equal values may be shown once. Read-outs that look alike come from different tables or passages of the source. Marks after values point to notes of the source that are not given here.

Experiments:
[1] = Determination of lipophilicity (octanol/water distribution by UV absorbance); format: physicochemical; settings: for percent in octanol: after extraction with water
Procedure: A 250 mL volume of n-octanol was shaken with 100 mL of ddH2O and left overnight. […]
The absorption of the octanol layer and water layers were measured and compared with the absorbance of the stock solutions. Measurements were repeated three times and the distribution coefficients were reported as the average. The percent of IL in octanol was calculated as the absorbance of the octanol layer after extraction divided by the absorbance of IL in octanol before extraction. The water/octanol distribution coefficient was calculated as the logarithm of the percent of IL in octanol divided by the percent of IL in water.

[2] = test system: Normal human bronchial epithelial (NHBE) cells; assay: WST-1 proliferation assay, 24 h exposure to diluted ILs
Procedure: Normal human bronchial epithelial (NHBE) cells were purchased (Lonza, Walkersville, MD) and cultured using bronchial epithelial cell growth media (BEGM, Clonetics Bullet Kit, Lonza, Walkersville, MD) on 100 mm tissue culture treated Petri dishes (Santa Cruz Biotechnologies, Santa Cruz, CA) coated with 50 μg/mL type I rat tail collagen (BD Biosciences, Bedford, MA). Cells were stored in an incubator with a humidified atmosphere at 37° C. and 5% CO2. Cells were fed two times weekly and passaged via trypsinization. Experimentation was performed in triplicate on cells harvested from passages 3 to 7.
NHBE cells were plated in 96-well tissue culture plates at a concentration of 1.5×10^4 cells/well in a volume of 200 μL and allowed to acclimate overnight. On the day of experimentation, treatment plates were prepared using stock ionic liquid diluted in BEGM and then serially diluted 3-fold for a total of 7 concentrations. The 96-well plates containing cells were then aspirated and the treatments (150 μL/well) were carefully transferred from the prep plate to the cells. Cells were exposed to the ionic liquids for 24 hours. Two hours prior to the end of the exposure time, positive control cell wells were aspirated, and a solution of 1% Triton-100 (150 μL/well) was added.
To assess cellular proliferation, water-soluble tetrazolium (WST-1) reagent (Clontech, Mountain View, CA) was added directly to cells, at a 1:10 dilution of the remaining media volume (7.5 μL of WST-1 reagent was added per 75 μL remaining cell culture media). NHBE cells exposed to media only and 1% Triton in BEGM were included as controls. Ionic liquid controls at the highest concentrations tested were included in wells without cells to rule out ionic liquid/assay reagent interference.

[3] = Viscosity (Viscolab 3000 viscometer); format: physicochemical
Procedure: Viscosity was measured on 1 mL samples with a Viscolab 3000 viscometer (Cambridge Viscosity, Medford, MA). […] Low-temperature differential scanning calorimetry (DSC) was performed on a DSC882e instrument (Mettler-Toledo Inc., Columbus, Ohio) under N2 atmosphere over two complete scans of a temperature range of −60 to 120° C. with a ramp rate of 10° C. per minute and a sample size of 18-21 mg in an aluminum crucible.

Conductivity of neat IL = format: physicochemical
Procedure: (§1) Determinations of conductivity were made on an ION450 benchtop meter (Radiometer Analytical) with a 2-pole electrode designed for use in viscous liquids (Radiometer Analytical CDC241-9) and calibrated with KCl. Conductivity was measured three times per sample on stirred 3 mL volumes of neat IL at 25° C. Density was measured three times per IL using a 1 mL volumetric flask and an analytical balance.

[4] = Density (volumetric flask and balance); format: physicochemical
Procedure: as §1

[5] = Calculations of molarity and ionic strength; format: physicochemical; settings: neat IL, Table 5
[6] = test system: P. aeruginosa (Pseudomonas) biofilm; settings: neat IL
[7] = test system: S. enterica (Salmonella) biofilm; settings: neat IL
[8] = Solubility in water (physical characterization); settings: for solubility in water: 25° C.
porcine skin = assay: Skin transport of 3H-Mannitol in Franz diffusion cell; format: in vitro ADME
Procedure: FIG. 1 is a schematic of the skin transport experiment set-up and analysis. Porcine skin was loaded into the Franz diffusion cell (FDC) with the stratum corneum (SC) facing up. Skin was incubated in contact with 3H-labeled drug dissolved in donor solution for 24 hrs, at 37° C., with stirring. After 24 hrs the donor solution was removed and skin thoroughly washed. The SC was separated from the epidermis by tape stripping. Ten tape strips were applied, each tape corresponding to 1 “layer” of SC. Ten tape strips were assumed to remove the entire SC. Epidermis was separated from dermis using a razor blade. Acceptor solution was collected, and drug transport into various tissue layers was quantified by scintillation counter.
3H-labeled Mannitol and Cefadroxil were obtained from American Radiolabeled Chemicals, Inc. and Moravek, respectively. FDCs were used to assess the transport enhancement of ionic liquids using a previously established protocol. Karande, et al., “Discovery of transdermal penetration enhancers by high-throughput screening”, Nat Biotechnol, 22(2): 192-7 (2004). Briefly, the acceptor chamber was filled with degassed PBS and a small stir bar added. Thawed porcine skin was clamped in place between the acceptor and donor chambers with the SC facing up. Care was taken to ensure no air bubbles resided in the acceptor chamber. Ionic liquids or PBS (control) were spiked with 3H-labeled drug (Mannitol and Cefadroxil) to a final concentration of 10 μCi/ml. 300 μL of donor solution was added to the donor chamber and incubated in contact with the SC for 24 hr, at 37° C., with stirring.
After 24 hr, the donor solution was removed, and the skin was thoroughly washed and dried.
SC was separated from epidermis by tape stripping. Ten tape strips were performed in an identical fashion, with each tape corresponding to 1 SC “layer”. Ten strips were assumed to remove the majority of the SC. Epidermis was separated from dermis with a razor blade, and the acceptor solution was collected from the acceptor chamber. Samples from each tissue layer and acceptor solution were dissolved in Soluble (Perkin Elmer, Waltham, MA) overnight and the concentration of radiolabeled solute was measured using a scintillation counter (Packard Tri-Carb 2100 TR, Meriden, CT).

[9] = read-out: IC50 at 24 h, WST, NHBE cells, 24 h, lower limits where solubility precluded IC50

Molecule | percent in octanol ([1]; Table 3) | viscosity ([3]; 25° C.) [cP] | viscosity ([3]; Table 5) | conductivity (Conductivity of neat IL; 25° C.) [mS/cm] | conductivity (Conductivity of neat IL; Table 5) | density ([4]; 25° C.) | density ([4]; Table 5) [g/mL] | ionic strength [5] [M] | molarity [5] [M] | further results
CCCCCCCC/C=C\CCCCCCCC(=O)O.CCCCCCCC/C=C\CCCCCCCC(=O)[O-].C[N+](C)(C)CCO | 95 +/− 3% | 880 | 162.3^b cP | 0.087 | 0.0871^b mS/cm | 0.98 g/mL | 0.98 | 1.47 | 1.47 | partitioning into octanol [1]: partitioned well into octanol; percent moving into the octanol layer ([1]; after 1 min of agitation): 95%; toxicity to human primary cells [2]: very toxic; IC50 ([2]; NHBE cells, text b165): 0.034 mM; viscosity ([3]; text b171): 162 cP; density ([4]; text b173): 0.98 g/mL
CCCC[N+]1(C)CCCC1.O=S(=O)([N-]S(=O)(=O)C(F)(F)F)C(F)(F)F [LANL-1, 1-Butyl-1-methylpyrrolidinium (BMP)—bistriflimide (NTf2)] | 20% +/− 7% | 72.7 | 72.72 cP | 1.99 | 1.99 mS/cm | 1.39 g/mL | 1.39 | 3.28 | 3.28 | partitioning into octanol [1]: partitioned poorly into octanol; percentage in the water phase ([1]; starting concentration of 0.2 M in octanol): 51%; percentage not incorporated in octanol or water ([1]; starting concentration of 0.2 M in octanol, third phase): 29%; toxicity to human primary cells [2]: low toxicity; IC50 [2, 9]: > 2 mM
NC(N)=O [LANL-6, urea-choline] | – | – | – | – | – | – | – | – | – | IC50 ([2]; NHBE cells, text b165): > 10 mM; IC50 [2, 9]: > 10 mM
CCCCCCn1cc[n+](C)c1.[Cl-] [LANL-7, 1-Hexyl-3-Methylimidazolium Chloride] | 52 +/− 9% | 680 | 679.5 cP | 0.340 | 0.340 mS/cm | 1.005 g/mL | 1.01 | 4.96 | 4.96 | logP ([1]; n-octanol/water, octanol/water, Table 3): 0.04; IC50 ([2]; Homo sapiens, NHBE): 10 mM; IC50 ([2]; Homo sapiens, NHBE, 24 h, read-out: IC50 at 24 h): 10 mM; toxicity to human primary cells ([2]; solubilized in culture medium): low toxicity; anti-biofilm efficacy [6]: effective; anti-biofilm efficacy [7]: effective; solubility ([8]; water, 25 °C): 700 mM
C[N+](C)(C)CCO.O=S(=O)([N-]S(=O)(=O)C(F)(F)F)C(F)(F)F [LANL-12, choline-NTf2] | 67 +/− 9% | 125 | 125 cP | 1.46 | 1.460 mS/cm | 1.5 g/mL and 1.53 g/mL | 1.54 | 4.40 | 4.40 | log Po/w ([1]; octanol/water, Table 3): 0.31; solubility in water [8]: 1700 mM
O=S(=O)(NS(=O)(=O)C(F)(F)F)C(F)(F)F [LANL-12, choline-NTf2] | – | – | – | – | – | – | – | – | – | IC50 [2, 9]: 1.7 mM
CCCCCCCC/C=C\CCCCCCCC(=O)[O-].CCCCCCCCCCCCCC[P+](CCCCCC)(CCCCCC)CCCCCC [LANL-19, [PC14H29(C6H13)3][oleate]] | 93 +/− 2% | 299 | 300 cP | 0.016 | 0.0162 mS/cm | 0.882 g/mL | 0.882 | 1.24 | 1.15 | log Po/w [1]: 1.14; loss/partitioning of solute to the acceptor solution (porcine skin; 3H-Mannitol): no additional loss of solute to the acceptor solution; transport enhancement into/through all layers of the skin (porcine skin; 3H-Mannitol, relative to PBS control): 5-10 fold; skin transport properties (porcine skin; materials in lower right portion of Walden plot): best skin transport properties
CCCCCC(=O)[O-].CCCCCCCCCCCCCC[P+](CCCCCC)(CCCCCC)CCCCCC [LANL-20, [PC14H29(C6H13)3][hexanoate]] | 65 +/− 14% | 154 | 154 cP | 0.488 | 0.488 mS/cm | 0.912 g/mL | 0.912 | 1.63 | 1.63 | log Po/w ([1]; octanol/water, Table 3): 0.26; solubility in water [8]: trace
CC(C)=CCC/C(C)=C/C(=O)[O-].CCCCCCCCCCCCCC[P+](CCCCCC)(CCCCCC)CCCCCC [LANL-22, [PC14H29(C6H13)3][geranate]] | 88 +/− 6% | 122 | 122.3 cP | 0.156 | 0.156 mS/cm | 0.931 g/mL | 0.931 | 1.43 | 1.43 | log Po/w [1]: 0.86
choline hexanoate [LANL-13] | 51 +/− 2% | 181 | 180.9 cP | 0.816 | 0.816 mS/cm | 1.01 g/mL | 1.01 | 3.02 | 3.02 | toxicity to human primary cells [2]: low toxicity; conductivity (Conductivity of neat IL; text b172): 0.816 mS/cm; drug permeation into the SC (porcine skin; 3H-Mannitol, 24 hr, 37° C.): inhibited drug permeation into the SC; anti-biofilm efficacy [6]: effective; anti-biofilm efficacy [7]: effective
choline malonate [LANL-5] | – | 920 | 920.1 cP | 0.429 | 0.429 mS/cm | 1.266 g/mL | 1.27 | 5.20 | 5.20 | density ([4]; text b173): 1.27 g/mL; anti-biofilm efficacy [6]: effective; anti-biofilm efficacy [7]: effective
